Reference: ChEMBL document CHEMBL1201862, “PubChem BioAssay data set” (2004)
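All cell lines were grown in 96-well plates and treated with compound for 48 hours. At the GI50, growth is halved.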 The source made the active and inactive calls. Cut-off read from the data, not from the text of the source: active = GI50 up to about 1.1 µM and inactive = higher.

Key:
Assay in all cases: NCI tumour cell line growth inhibition, 48 h
OVCAR-8 = test system: OVCAR-8
NCI-H522 = test system: NCI-H522
SNB-19 = test system: SNB-19
LOX IMVI = test system: LOX IMVI
CCRF-CEM = test system: CCRF-CEM
SK-MEL-5 = test system: SK-MEL-5
NCI-H226 = test system: NCI-H226
HCT-15 = test system: HCT-15
SK-OV-3 = test system: SK-OV-3
CAKI-1 = test system: CAKI-1
NCI-H460 = test system: NCI-H460
HCT-116 = test system: HCT-116
NCI-H23 = test system: NCI-H23
U-251 = test system: U-251
786-0 = test system: 786-0
SR = test system: SR
SF-539 = test system: SF-539
SN12C = test system: SN12C
ACHN = test system: ACHN
Malme-3M = test system: Malme-3M

Row | Compound | GI50 (OVCAR-8) | GI50 (NCI-H522) | GI50 (SNB-19) | GI50 (LOX IMVI) | GI50 (CCRF-CEM) | GI50 (SK-MEL-5) | GI50 (NCI-H226) | GI50 (HCT-15) | GI50 (SK-OV-3) | GI50 (CAKI-1) | GI50 (NCI-H460) | GI50 (HCT-116) | GI50 (NCI-H23) | GI50 (U-251) | GI50 (786-0) | GI50 (SR) | GI50 (SF-539) | GI50 (SN12C) | GI50 (ACHN) | GI50 (Malme-3M)
1 | OC1(c2cc3ccccc3s2)CCCCC1 | 42.6 µM (inactive) | 28.1 µM (inactive) | 82.4 µM (inactive) | 45.8 µM (inactive) | 21.4 µM (inactive) | 34.7 µM (inactive) | 80.9 µM (inactive) | 39.1 µM | 66.4 µM (inactive) | > 100 µM (inactive) | 44.2 µM (inactive) | 33.3 µM (inactive) | 46.6 µM (inactive) | 49.5 µM (inactive) | 34 µM (inactive) | 38.4 µM (inactive) | > 100 µM (inactive) | 30.9 µM (inactive) | 69 µM (inactive) | 
2 | CC(C)(C)C(=O)O[C@@H]1COC2C(O)COC21 (stereo partly drawn) | > 100 µM (inactive) | > 100 µM (inactive) | > 100 µM (inactive) | > 100 µM (inactive) | > 100 µM (inactive) | > 100 µM (inactive) |  |  |  | > 100 µM (inactive) | > 100 µM (inactive) | > 100 µM (inactive) | > 100 µM (inactive) | > 100 µM (inactive) | > 100 µM (inactive) | > 100 µM (inactive) | > 100 µM (inactive) | > 100 µM (inactive) | > 100 µM (inactive) | > 100 µM (inactive)
3 | c1ccc(C(=NNc2nc3ccccc3[nH]2)c2ccccn2)nc1 | 0.0993 µM (active) | 0.0288 µM (active) | 0.33 µM (active) | 0.172 µM (active) | 0.0313 µM (active) | 0.159 µM (active) | 0.0625 µM (active) | 0.115 µM | 0.103 µM (active) | 0.102 µM (active) | 0.134 µM (active) | 0.0832 µM (active) | 0.24 µM (active) | 0.171 µM (active) | 0.123 µM (active) | 0.0371 µM (active) | 0.177 µM (active) | 0.128 µM (active) | 0.114 µM (active) | 
4 | O=C(Nc1ccccc1F)c1cc2ccc(O)cc2o/c1=N\c1cccc(C(F)(F)F)c1 | 2.18 µM (inactive) | 2 µM (inactive) | 5.87 µM (inactive) | 2.69 µM (inactive) | 1.92 µM (inactive) | 1.94 µM (inactive) |  | 3.59 µM | 3.78 µM (inactive) | 3.79 µM (inactive) | 3.22 µM (inactive) | 2.85 µM (inactive) | 1.76 µM (inactive) | 3.73 µM (inactive) | 4.57 µM (inactive) | 3.31 µM (inactive) | 3.9 µM (inactive) |  | 3.57 µM (inactive) | 2.69 µM (inactive)
5 | COc1cc([C@H]2c3cc(O)c(OC)cc3C[C@]3(O)[C@@H]2CO[C@@H]3O)ccc1O | > 100 µM (inactive) | > 100 µM (inactive) | > 100 µM (inactive) | > 100 µM (inactive) | > 100 µM (inactive) | > 100 µM (inactive) | > 100 µM (inactive) | > 100 µM | > 100 µM (inactive) | > 100 µM (inactive) | > 100 µM (inactive) | > 100 µM (inactive) | > 100 µM (inactive) | > 100 µM (inactive) | > 100 µM (inactive) | > 100 µM (inactive) | > 100 µM (inactive) | > 100 µM (inactive) | > 100 µM (inactive) | 
6 | N#CC1C2CCC3(CC2CCN1C(=O)c1ccccc1)OCCO3 (stereo not drawn) | > 100 µM (inactive) |  | > 100 µM (inactive) | > 100 µM (inactive) | > 100 µM (inactive) | > 100 µM (inactive) |  | > 100 µM | > 100 µM (inactive) |  | > 100 µM (inactive) | > 100 µM (inactive) | > 100 µM (inactive) | > 100 µM (inactive) | > 100 µM (inactive) | > 100 µM (inactive) | > 100 µM (inactive) | > 100 µM (inactive) | > 100 µM (inactive) | > 100 µM (inactive)
7 | N/N=C1\C(=O)N(Cc2ccccc2)C(=O)C1C(=O)NCc1ccccc1 (stereo not drawn) | > 100 µM (inactive) | > 100 µM (inactive) | > 100 µM (inactive) |  | > 100 µM (inactive) | > 100 µM (inactive) |  | > 100 µM |  |  | > 100 µM (inactive) | > 100 µM (inactive) | > 100 µM (inactive) | > 100 µM (inactive) | > 100 µM (inactive) | > 100 µM (inactive) | > 100 µM (inactive) | > 100 µM (inactive) | > 100 µM (inactive) | > 100 µM (inactive)
8 | CC1CN=C(N(C(=O)Nc2ccc(Cl)cc2)c2cccc(Cl)c2)S1 (stereo not drawn) | 36.9 µM (inactive) |  | > 100 µM (inactive) | 21.6 µM (inactive) | 17.8 µM (inactive) | 17.5 µM (inactive) |  | 11.3 µM | > 100 µM (inactive) | 12.9 µM (inactive) | 27.1 µM (inactive) | 20.4 µM (inactive) | 35.1 µM (inactive) | 70.3 µM (inactive) | 23.9 µM (inactive) | 29.3 µM (inactive) | 33.7 µM (inactive) | 15.7 µM (inactive) | 10.8 µM (inactive) | 59 µM (inactive)
